Assay results reported in patent US8541462B2, “Tetrahydrocarbazole derivatives as ligands of G-protein coupled receptors” (AEterna Zentaris GmbH, priority 2007, dated 2013).
Counter-ions that a name gives are not always drawn.

Assays:
[1] = target: T1, LHRH receptor (endogenous GnRH receptor of alpha T3-1 cell line) (Mus musculus, UniProt Q01776); test: LHRH-receptor binding assay (displacement of [125I] cetrorelix on alpha T3-1 cells); details: WO 2006/005484-substance 75 = 100%
T1 construct: alpha T3-1 cell line with endogenous GnRH receptor expression; endogenous in cells; host or cells: alpha T3-1 cells (intact cell suspension)
T1 sequence (Q01776 1-327): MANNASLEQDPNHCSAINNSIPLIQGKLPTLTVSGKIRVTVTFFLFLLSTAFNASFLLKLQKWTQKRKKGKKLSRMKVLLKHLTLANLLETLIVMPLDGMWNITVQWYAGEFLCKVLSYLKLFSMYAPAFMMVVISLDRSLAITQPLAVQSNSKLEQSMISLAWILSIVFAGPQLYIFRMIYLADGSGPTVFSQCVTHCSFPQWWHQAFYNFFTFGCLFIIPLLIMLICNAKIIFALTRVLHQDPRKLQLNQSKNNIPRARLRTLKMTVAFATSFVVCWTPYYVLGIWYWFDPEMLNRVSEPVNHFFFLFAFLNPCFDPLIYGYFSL
Protocol: For LHRH receptor binding studies, an assay system using alpha T3-1 cell line with endogenous GnRH receptor expression was employed (Windle et al., Mol. Endocrinol. 1990, 4(4): 597-603).
Iodinated cetrorelix was used as a tracer with about 80% of peptide capable of specific receptor association.
For displacement binding assays, the cells were incubated with approximately 200 pM [^125l] cetrorelix and different concentrations of unlabeled test compounds as competitor. The cell suspension in binding medium was layered on top of silicon/paraffin oil, incubated for 60 min at 37° C. and separated by centrifugation. The tips of the tubes containing the cell pellet were cut off, subsequently cell pellet and supernatant were analyzed by gamma-radiation analysis.
The amount of unspecific binding was determined by including unlabeled cetrorelix at 1 μM final concentration and was typically ≦10% of total binding. IC50 values were calculated by using the GraphPad Prism analysis program (GraphPad Software Inc.).

[2] = Metabolic stability testing in liver microsomes; assay type: in vitro ADME; details: mixed-gender human liver microsomes, 1 mg microsomal protein/mL, initial concentration 10 μM, 60 minutes at 37° C.; WO 2006/005484-substance 7 = 100%
Protocol: Subcellular fractions of different tissues can be prepared easily by ultracentrifugation. Most commonly these are prepared from the liver of animals and human donors to gain information about the potential hepatic clearance of compounds (first-pass elimination of drugs). Human or animal (e.g. dog, mouse, rat) subcellular fraction like liver microsomes, or possibly the fraction called S9 have therefore become a very commonly and widely used as an in vitro model to investigate mainly cytochrome P450 dependent phase I (but also phase II) metabolism that takes place in the liver.
In order to reflect the standard proportion of the enzymes in human and animal livers, liver microsomes are usually pooled from a number of […] of the same sex (or mixed-gender). By supplementing the liver microsomes with relevant cofactors and other components it is possible to investigate and distinguish between CYPs, flavin-containing monooxygenase (FMO) and UDP-glucuronosyltransferase (UGT) activities.
Selected compounds of the invention were tested for their stability in mixed-gender human liver microsomes and compared to pertinent prior art compounds.
Under the test conditions applied (1 mg microsomal protein/mL, initial concentration of 10 μM, and incubation for 60 minutes at 37° C.) the following normalized results were obtained.

[3] = Pharmacokinetic study (oral, cannulated rats, LC/MS of plasma); assay type: in vivo, rat
Protocol: Adult male Wistar rats weighing 278-290 g (Jinvier, France) were used in the study. Animals were housed in a temperature-controlled room (20-24° C.) and maintained in a 12 h light/12 h dark cycle. Food and water were available ad libitum.
For surgery, rats were anaesthetised with a ketamine (90 mg/kg)/xylazine (10 mg/kg) mixture, and cannulated with silicone tubing via the right jugular vein. Prior to the first blood sampling, animals were connected to a counterbalanced system and tubing to perform blood sampling in the freely moving rat.
Separate stock solutions (5 mg/ml) of compound 52 of the invention and prior art substance WO 2006/005484—substance 76 were prepared in Solutol HS 15/PEG300 (3:1). The whole process was performed under constant stirring. Half of the volume of the vehicle was added first. After sonication (5 minutes), the second half of the vehicle was added and the vials were again sonicated. All the solutions were clear and free of particles or agglomerates.
Immediately before application, the dosing mixture was prepared by adding equal volumes of the stock solutions to end up with a final concentration of 1 mg/ml for each compound. The mixture was applied orally to rats with an application volume of 5 ml/kg.
Blood samples (200 μl) were taken 1 hour before application and 1, 2, 4, 6, 8, 12 and 24 hours after. They were centrifuged at 650 g for 10 minutes at 4° C. and then the plasma was harvested and kept at −20° C. until LC/MS analysis.

plasma testosterone = test: Testosterone suppression experiment (plasma testosterone ELISA); assay type: in vivo, rat; details: male Wistar rats, po in Solutol HS15/PEG300 (3:1), samples up to 24 h post-dose
Protocol: Male Wistar rats weighing 248-296 g (Janvier, France) were used in the present study. Animals were housed in a temperature-controlled room (20-22° C.) and maintained in a 12 h light/12 h dark cycle. Food and water were available ad libitum.
Rats were anaesthetised with a ketamine (135 mg/kg)/xylazine (10 mg/kg) mixture, and cannulated with silicone tubing via the right jugular vein. Prior to the first blood sampling, animals were connected to a counterbalanced system and tubing, to perform blood sampling in the freely moving rat.
The dosing solutions were prepared immediately before application. […]
The concentrations of testosterone in the rat plasma samples were determined using the Testosterone ELISA (EIA-1559) from DRG Instruments according to the manufacturer's instructions. […] The plate was read within the next 30 min with a Spectramax Plus (Molecular Devices) at 450 nm. The concentration of testosterone in the samples was calculated from the standard curve and is inversely proportional to the optical density measured.
Due to the pulsatile release of testosterone in intact rats, two pre-treatment samples ere collected to establish baseline values prior the administration of the compound. […] The pre-treatment mean value was compared to the testosterone levels measured after application.

[4] = rat, plasma, male Wistar rats, oral, 5 mg/kg, mixture of both compounds in Solutol HS 15/PEG300 (3:1)

Normalized Affinity [1] [%]	Normalized microsomal stability [2] [%]	AUC(0-t) [3, 4] [ng·h/mL]	Cmax [3, 4] [ng/mL]	Tmax [3, 4] [h]	higher AUC compared to the pertinent prior art substance (indicative for bioavailability) ([3]; versus WO 2006/005484-substance 76, rats, oral 5 mg/kg)	SMILES	mean plasma testosterone concentration over time (FIG. 2) (plasma testosterone)
218	178	306	38.2	4	more than 300%	CCC(C)[C@H](NC(=O)Cc1ccccc1F)C(=O)N[C@]1(C(=O)N[C@H](C(=S)NCC2CCOCC2)C(C)CC)CCc2[nH]c3c(C(F)(F)F)cccc3c2C1 (stereo partly drawn) [Compound 52, (R)-3-{(S)-2-[2-(2-Fluoro-phenyl)-acetylamino]-3-methyl-pentanoylamino}-8-trifluoromethyl-2,3,4,9-tetrahydro-1H-carbazole-3-carboxylic acid {(S)-2-methyl-1-[(tetrahydro-pyran-4-ylmethyl)-thiocarbamoyl]-butyl}-amide]	–
247	–	–	–	–	–	CCC(C)[C@H](NC(=O)Cc1ccccc1F)C(=O)N[C@]1(C(=O)N[C@H](C(=S)NCCN2CCOCC2)C(C)CC)CCc2[nH]c3c(C(F)(F)F)cccc3c2C1 (stereo partly drawn) [compound 54 (TFA salt), (R)-3-{(S)-2-[2-(2-Fluoro-phenyl)-acetylamino]-3-methyl-pentanoylamino}-8-trifluoromethyl-2,3,4,9-tetrahydro-1H-carbazole-3-carboxylic acid [(S)-2-methyl-1-(2-morpholin-4-yl-ethylthiocarbamoyl)-butyl]-amide]	testosterone suppression
